Measured values published in patent US20250367166A1, “NEXT GENERATION DIPROVOCIMS THAT ACTIVATE THE INNATE AND ADAPTIVE IMMUNE RESPONSE” (The Scripps Research Institute, priority 2022, published 2025).
Like-named read-outs stand apart in the source and are kept apart here.

Columns and labels:
[1] = target: TLR1/TLR2 (Homo sapiens, UniProt O60603+Q15399); experiment: TNF-α release from PMA-differentiated human THP-1 cells (ELISA); conditions: for Emax: THP-1, 4 h, read-out: Efficacy (magnitude) of response versus diprovocim-1 (100%), THP-1;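 as to all read-outs here: cells exposed to graded compound concentrations for 4 h, TNF-α quantified in supernatant, LPS as positive and DMSO as negative control, values are duplicate means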
Chain of TLR1/TLR2 (Homo sapiens, UniProt O60603+Q15399) (Q15399 25-786): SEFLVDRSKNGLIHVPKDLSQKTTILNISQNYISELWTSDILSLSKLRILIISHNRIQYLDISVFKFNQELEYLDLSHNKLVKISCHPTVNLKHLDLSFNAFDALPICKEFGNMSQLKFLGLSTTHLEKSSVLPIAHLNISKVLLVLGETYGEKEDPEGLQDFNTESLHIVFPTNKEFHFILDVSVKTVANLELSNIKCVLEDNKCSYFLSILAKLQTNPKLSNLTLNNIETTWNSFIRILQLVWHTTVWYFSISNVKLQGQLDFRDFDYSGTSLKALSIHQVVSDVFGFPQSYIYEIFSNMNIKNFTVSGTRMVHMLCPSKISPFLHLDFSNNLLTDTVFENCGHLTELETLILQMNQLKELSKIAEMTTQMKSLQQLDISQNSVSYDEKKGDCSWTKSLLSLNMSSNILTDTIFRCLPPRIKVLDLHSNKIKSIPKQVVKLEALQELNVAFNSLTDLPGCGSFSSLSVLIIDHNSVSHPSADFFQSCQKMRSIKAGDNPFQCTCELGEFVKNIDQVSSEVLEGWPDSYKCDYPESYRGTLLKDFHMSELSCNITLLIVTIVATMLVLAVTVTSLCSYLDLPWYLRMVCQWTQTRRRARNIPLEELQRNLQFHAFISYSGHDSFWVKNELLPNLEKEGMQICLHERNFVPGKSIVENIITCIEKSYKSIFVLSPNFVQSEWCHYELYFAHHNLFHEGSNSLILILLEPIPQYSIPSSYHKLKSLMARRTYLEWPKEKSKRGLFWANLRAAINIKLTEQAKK
Chain of TLR1/TLR2 (Homo sapiens, UniProt O60603+Q15399) (O60603 21-784): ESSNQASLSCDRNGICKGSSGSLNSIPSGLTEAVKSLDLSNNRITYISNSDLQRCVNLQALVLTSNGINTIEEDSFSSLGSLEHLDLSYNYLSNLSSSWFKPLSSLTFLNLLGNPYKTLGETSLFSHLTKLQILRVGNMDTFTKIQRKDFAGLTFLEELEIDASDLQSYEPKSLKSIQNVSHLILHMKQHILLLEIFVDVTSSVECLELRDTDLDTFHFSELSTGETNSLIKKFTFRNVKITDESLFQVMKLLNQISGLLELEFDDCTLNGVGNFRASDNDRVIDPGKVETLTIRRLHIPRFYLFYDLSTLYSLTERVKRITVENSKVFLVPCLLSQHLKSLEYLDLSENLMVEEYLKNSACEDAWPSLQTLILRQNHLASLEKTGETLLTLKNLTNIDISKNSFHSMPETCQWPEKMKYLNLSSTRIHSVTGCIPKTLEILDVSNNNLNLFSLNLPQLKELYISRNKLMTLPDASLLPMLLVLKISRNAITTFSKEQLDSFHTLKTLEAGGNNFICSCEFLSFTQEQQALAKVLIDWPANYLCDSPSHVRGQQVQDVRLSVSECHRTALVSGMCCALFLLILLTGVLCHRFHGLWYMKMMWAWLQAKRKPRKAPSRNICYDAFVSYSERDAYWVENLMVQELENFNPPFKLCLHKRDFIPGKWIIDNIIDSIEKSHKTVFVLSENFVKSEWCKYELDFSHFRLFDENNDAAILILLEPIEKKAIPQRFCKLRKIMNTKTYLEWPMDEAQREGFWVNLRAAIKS

[2] = target: TLR1/TLR2 (Mus musculus, UniProt Q9EPQ1+Q9QUN7); experiment: TNF-α release from thioglycolate-elicited mouse peritoneal macrophages (ELISA); conditions: for Emax: 4 h, read-out: Efficacy (magnitude) of response versus diprovocim-1 (100%), mouse macrophages
Chain of TLR1/TLR2 (Mus musculus, UniProt Q9EPQ1+Q9QUN7) (Q9EPQ1 26-795): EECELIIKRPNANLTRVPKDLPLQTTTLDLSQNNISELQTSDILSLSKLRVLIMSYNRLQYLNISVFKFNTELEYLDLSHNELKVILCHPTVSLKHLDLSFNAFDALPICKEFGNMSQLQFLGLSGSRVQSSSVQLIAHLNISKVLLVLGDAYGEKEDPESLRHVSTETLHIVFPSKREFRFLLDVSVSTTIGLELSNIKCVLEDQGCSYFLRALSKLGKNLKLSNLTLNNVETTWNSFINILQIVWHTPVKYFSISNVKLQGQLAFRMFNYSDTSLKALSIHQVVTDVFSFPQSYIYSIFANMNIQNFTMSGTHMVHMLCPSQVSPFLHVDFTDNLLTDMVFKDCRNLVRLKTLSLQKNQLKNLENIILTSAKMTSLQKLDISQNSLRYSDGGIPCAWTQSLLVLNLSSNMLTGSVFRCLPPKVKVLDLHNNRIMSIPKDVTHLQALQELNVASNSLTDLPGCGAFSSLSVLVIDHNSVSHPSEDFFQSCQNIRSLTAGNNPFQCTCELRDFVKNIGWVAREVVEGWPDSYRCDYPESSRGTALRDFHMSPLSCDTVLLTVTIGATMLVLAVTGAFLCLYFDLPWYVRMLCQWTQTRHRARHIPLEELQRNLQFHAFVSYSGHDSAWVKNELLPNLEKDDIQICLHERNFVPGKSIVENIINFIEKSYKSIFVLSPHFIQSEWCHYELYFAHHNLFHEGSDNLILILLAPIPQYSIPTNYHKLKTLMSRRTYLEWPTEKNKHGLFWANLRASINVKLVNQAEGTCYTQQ
Chain of TLR1/TLR2 (Mus musculus, UniProt Q9EPQ1+Q9QUN7) (Q9QUN7 25-784): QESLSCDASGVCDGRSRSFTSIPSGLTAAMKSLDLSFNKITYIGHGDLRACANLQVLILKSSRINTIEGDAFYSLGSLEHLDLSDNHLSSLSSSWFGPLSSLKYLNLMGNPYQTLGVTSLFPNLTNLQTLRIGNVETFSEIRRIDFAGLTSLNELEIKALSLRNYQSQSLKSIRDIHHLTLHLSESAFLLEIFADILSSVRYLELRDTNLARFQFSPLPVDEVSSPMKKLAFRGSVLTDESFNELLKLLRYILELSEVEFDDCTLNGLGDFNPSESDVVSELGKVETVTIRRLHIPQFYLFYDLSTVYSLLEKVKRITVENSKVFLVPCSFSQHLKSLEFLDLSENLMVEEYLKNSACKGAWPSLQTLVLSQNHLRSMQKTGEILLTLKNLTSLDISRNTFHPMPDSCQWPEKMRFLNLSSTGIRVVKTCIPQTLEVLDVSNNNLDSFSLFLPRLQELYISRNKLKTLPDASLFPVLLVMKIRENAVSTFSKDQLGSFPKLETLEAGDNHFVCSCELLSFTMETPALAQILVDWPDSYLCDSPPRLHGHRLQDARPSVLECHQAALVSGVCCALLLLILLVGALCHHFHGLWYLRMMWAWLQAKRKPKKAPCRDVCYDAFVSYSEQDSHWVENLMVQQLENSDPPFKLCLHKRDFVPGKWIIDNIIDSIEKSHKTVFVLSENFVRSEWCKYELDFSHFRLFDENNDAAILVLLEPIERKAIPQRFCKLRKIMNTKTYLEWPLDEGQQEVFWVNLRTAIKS

[3] = read-out: EC50 (nM) (THP-1): EC50 TNF-α release from human THP-1 cells, Table 5
[4] = read-out: EC50 (nM) (mouse): EC50 TNF-α release from mouse macrophages, Table 5
[5] = read-out: EC50 (nM) (THP-1): EC50 TNF-α release from human THP-1 cells, Table 3
[6] = read-out: EC50 (nM) (mouse): EC50 TNF-α release from mouse macrophages, Table 3
[7] = read-out: EC50 (nM) (THP-1): EC50 TNF-α release from human THP-1 cells, Table 1
[8] = read-out: EC50 (nM) (mouse): EC50 TNF-α release from mouse macrophages, Table 1

Emax [1] | Emax [2] | EC50 [1, 5] | EC50 [2, 6] | Compound | other results
110% | 230% | 0.25 nM | 0.85 nM | O=C(NCCCCCCCCCCCCOCc1ccc([N+](=O)[O-])cc1)[C@@H]1CN(C(=O)c2ccc(C(=O)N3C[C@@H](C(=O)N[C@H]4C[C@@H]4c4ccccc4)[C@H](C(=O)N[C@H]4C[C@@H]4c4ccccc4)C3)cc2)C[C@H]1C(=O)N[C@H]1C[C@@H]1c1ccccc1 [Compound 51, (3S,4S)-1-(4-((3S,4S)-3,4-Bis(((1S,2R)-2-phenylcyclo-propyl)carbamoyl)pyrrolidine-1-carbonyl)-benzoyl)-N^3-(12-((4-nitrobenzyl)oxy)dodecyl)-N^4-((1S,2R)-2-phenyl-cyclopropyl)pyrrolidine-3,4-dicarboxamide] | –
40% | 100% | 0.59 nM | 5.3 nM | C#CCN(C)CC(=O)OCCCCCCCCCCCCNC(=O)[C@@H]1CN(C(=O)c2ccc(C(=O)N3C[C@@H](C(=O)N[C@H]4C[C@@H]4c4ccccc4)[C@H](C(=O)N[C@H]4C[C@@H]4c4ccccc4)C3)cc2)C[C@H]1C(=O)N[C@H]1C[C@@H]1c1ccccc1 [Compound 53, 12-((3S,4S)-1-(4-((3S,4S)-3,4-Bis(((1S,2R)-2-phenylcyclopropyl)carbamoyl)pyrrolidine-1-carbonyl)-benzoyl)-4-(((1S,2R)-2-phenylcyclopropyl)carbamoyl)-pyrrolidine-3-carboxamido)dodecyl 2-(methyl(prop-2-yn-1-yl)amino)acetate] | –
100% | 110% | – | – | O=C(O)CCCCCCCCCCCNC(=O)[C@@H]1CN(C(=O)c2ccc(C(=O)N3C[C@@H](C(=O)N[C@H]4C[C@@H]4c4ccccc4)[C@H](C(=O)N[C@H]4C[C@@H]4c4ccccc4)C3)cc2)C[C@H]1C(=O)N[C@H]1C[C@@H]1c1ccccc1 [Compound 11, 12-((3S,4S)-1-(4-((3S,4S)-3,4-Bis(((1S,2R)-2-phenyl-cyclopropyl)carbamoyl)pyrrolidine-1-carbonyl)benzoyl)-4-(((1S,2R)-2-phenylcyclopropyl)carbamoyl)pyrrolidine-3-carboxamido)-dodecanoic acid] | EC50 [1, 7]: 3.4 nM; EC50 [2, 8]: 280 nM
100% | 140% | – | – | CC(C)(C)OC(=O)CCOCCOCCOCCNC(=O)CCCCCCCCCCCNC(=O)[C@@H]1CN(C(=O)c2ccc(C(=O)N3C[C@@H](C(=O)N[C@H]4C[C@@H]4c4ccccc4)[C@H](C(=O)N[C@H]4C[C@@H]4c4ccccc4)C3)cc2)C[C@H]1C(=O)N[C@H]1C[C@@H]1c1ccccc1 [Compound 56, tert-Butyl 1-((3S,4S)-1-(4-((3S,4S)-3,4-bis(((1S,2R)-2-phenylcyclopropyl)carbamoyl)pyrrolidine-1carbonyl)benzoyl)-4-(((1S,2R)-2-phenylcyclopropyl)-carbamoyl)pyrrolidin-3-yl)-1,14-dioxo-18,21,24-trioxa-2,15-diazaheptacosan-27-oate] | EC50 ([1]; read-out: EC50 (nM) (THP-1): EC50 TNF-α release from human THP-1 cells, Table 4): 2.8 nM; EC50 ([2]; read-out: EC50 (nM) (mouse): EC50 TNF-α release from mouse macrophages, Table 4): 21 nM
– | – | – | – | O=C(NCc1ccccc1)[C@@H]1CN(C(=O)c2ccc(C(=O)N3C[C@@H](C(=O)N[C@H]4C[C@@H]4c4ccccc4)[C@H](C(=O)N[C@H]4C[C@@H]4c4ccccc4)C3)cc2)C[C@H]1C(=O)N[C@H]1C[C@@H]1c1ccccc1 [Compound 22, (3S,4S)—N^3-Benzyl-1-(4-((3S,4S)-3,4-bis(((1S,2R)-2-phenylcyclopropyl)carbamoyl)pyrrolidine-1-carbonyl)-benzoyl)-N^4-((1S,2R)-2-phenylcyclopropyl)pyrrolidine-3,4-dicarboxamide] | EC50 [1, 7]: 7 nM; EC50 [2, 8]: 50 nM
100% | 120% | 0.38 nM | 6 nM | COC(=O)NCC(=O)OCCCCCCCCCCCCNC(=O)[C@@H]1CN(C(=O)c2ccc(C(=O)N3C[C@@H](C(=O)N[C@H]4C[C@@H]4c4ccccc4)[C@H](C(=O)N[C@H]4C[C@@H]4c4ccccc4)C3)cc2)C[C@H]1C(=O)N[C@H]1C[C@@H]1c1ccccc1 [Compound 39, 12-((3S,4S)-1-(4-((3S,4S)-3,4-Bis(((1S,2R)-2-phenylcyclopropyl)carbamoyl)pyrrolidine-1-carbonyl)benzoyl)-4-(((1S,2R)-2-phenylcyclopropyl)-carbamoyl)pyrrolidine-3-carboxamido)-dodecyl 2-((methoxycarbonyl)amino)acetate] | –
130% | 140% | 0.14 nM | 1.5 nM | CC(=O)OCCCCCCCCCCCCNC(=O)[C@@H]1CN(C(=O)c2ccc(C(=O)N3C[C@@H](C(=O)N[C@H]4C[C@@H]4c4ccccc4)[C@H](C(=O)N[C@H]4C[C@@H]4c4ccccc4)C3)cc2)C[C@H]1C(=O)N[C@H]1C[C@@H]1c1ccccc1 [Compound 32, 12-((3S,4S)-1-(4-((3S,4S)-3,4-Bis(((1S,2R)-2-phenyl-cyclopropyl)carbamoyl)pyrrolidine-1-carbonyl)benzoyl)-4-(((1S,2R)-2-phenylcyclopropyl)carbamoyl)pyrrolidine-3-carboxamido)dodecyl acetate] | –
100% | 100% | 0.07 nM | 0.75 nM | NCC(=O)OCCCCCCCCCCCCNC(=O)[C@@H]1CN(C(=O)c2ccc(C(=O)N3C[C@@H](C(=O)N[C@H]4C[C@@H]4c4ccccc4)[C@H](C(=O)N[C@H]4C[C@@H]4c4ccccc4)C3)cc2)C[C@H]1C(=O)N[C@H]1C[C@@H]1c1ccccc1 [Compound 43, 12-((3S,4S)-1-(4-((3S,4S)-3,4-Bis(((1S,2R)-2-phenylcyclopropyl)carbamoyl)pyrrolidine-1-carbonyl)benzoyl)-4-(((1S,2R)-2-phenylcyclopropyl)carbamoyl)pyrrolidine-3-carboxamido)dodecyl glycinate] | EC50 [1]: 0.05 to 0.2 nM; EC50 [2]: 0.7 to 5 nM

Compound | Emax [1] | Emax [2] | EC50 [1, 5] | EC50 [2, 6] | other results
CC(C)(C)OC(=O)N[C@@H](CSCc1ccccc1)C(=O)OCCCCCCCCCCCCNC(=O)[C@@H]1CN(C(=O)c2ccc(C(=O)N3C[C@@H](C(=O)N[C@H]4C[C@@H]4c4ccccc4)[C@H](C(=O)N[C@H]4C[C@@H]4c4ccccc4)C3)cc2)C[C@H]1C(=O)N[C@H]1C[C@@H]1c1ccccc1 [Compound 65, (R)-12-((3S,4S)-1-(4-((3S,4S)-3,4-Bis(((1S,2R)-2-phenylcyclopropyl)carbamoyl)pyrrolidine-1-carbonyl)-benzoyl)-4-(((1S,2R)-2-phenylcyclopropyl)carbamoyl)-pyrrolidine-3-carboxamido)dodecyl 3-(benzylthio)-2-((tert-butoxycarbonyl)amino)propanoate] | 100% | 200% | – | – | EC50 [1, 3]: 18 nM; EC50 [2, 4]: 360 nM
CC(C)[C@H](NC(=O)OC(C)(C)C)C(=O)OCCCCCCCCCCCCNC(=O)[C@@H]1CN(C(=O)c2ccc(C(=O)N3C[C@@H](C(=O)N[C@H]4C[C@@H]4c4ccccc4)[C@H](C(=O)N[C@H]4C[C@@H]4c4ccccc4)C3)cc2)C[C@H]1C(=O)N[C@H]1C[C@@H]1c1ccccc1 [Compound 59, (S)-12-((3S,4S)-1-(4-((3S,4S)-3,4-Bis(((1S,2R)-2-phenylcyclopropyl)carbamoyl)pyrrolidine-1-carbonyl)-benzoyl)-4-(((1S,2R)-2-phenylcyclopropyl)carbamoyl)-pyrrolidine-3-carboxamido)-dodecyl 2-((tert-butoxycarbonyl)amino)-3-methylbutanoate] | 100% | 180% | – | – | EC50 [1, 3]: 1.8 nM; EC50 [2, 4]: 19 nM
CC(C)(C)OC(=O)N[C@@H](CCCCNC(=O)OCC1c2ccccc2-c2ccccc21)C(=O)OCCCCCCCCCCCCNC(=O)[C@@H]1CN(C(=O)c2ccc(C(=O)N3C[C@@H](C(=O)N[C@H]4C[C@@H]4c4ccccc4)[C@H](C(=O)N[C@H]4C[C@@H]4c4ccccc4)C3)cc2)C[C@H]1C(=O)N[C@H]1C[C@@H]1c1ccccc1 [Compound 69, (S)-12-((3S,4S)-1-(4-((3S,4S)-3,4-Bis(((1S,2R)-2-phenylcyclopropyl)carbamoyl)pyrrolidine-1-carbonyl)-benzoyl)-4-(((1S,2R)-2-phenylcyclopropyl)carbamoyl)-pyrrolidine-3-carboxamido)-dodecyl 6-((((9H-fluoren-9-yl)methoxy)-carbonyl)amino)-2-((tert-butoxy-carbonyl)amino)-hexanoate] | 100% | 200% | – | – | EC50 [1, 3]: 280 nM; EC50 [2, 4]: 1150 nM
CC(C)(C)OC(=O)Nc1ccc(C(=O)OCCCCCCCCCCCCNC(=O)[C@@H]2CN(C(=O)c3ccc(C(=O)N4C[C@@H](C(=O)N[C@H]5C[C@@H]5c5ccccc5)[C@H](C(=O)N[C@H]5C[C@@H]5c5ccccc5)C4)cc3)C[C@H]2C(=O)N[C@H]2C[C@@H]2c2ccccc2)cc1 [Compound 73, 12-((3S,4S)-1-(4-((3S,4S)-3,4-Bis(((1S,2R)-2-phenyl-cyclopropyl)carbamoyl)pyrrolidine-1-carbonyl)-benzoyl)-4-(((1S,2R)-2-phenylcyclopropyl)carbamoyl)-pyrrolidine-3-carboxamido)-dodecyl 4-((tert-butoxycarbonyl)amino)benzoate] | 90% | 540% | – | – | EC50 ([1]; read-out: EC50 (nM) (THP-1): EC50 TNF-α release from human THP-1 cells, Table 6): 0.57 nM; EC50 ([2]; read-out: EC50 (nM) (mouse): EC50 TNF-α release from mouse macrophages, Table 6): 30 nM
